Legend:
senescent cells = test: Viability of senescent cells (CellTiter-Glo), Example 17, Table 13; details: for Survival (%): doxorubicin-induced senescent cells, 0 μM = 100
Experimental: Cells induced to undergo senescence by doxorubicin treatment were treated with test compound at designated concentrations and measured using the CellTiter-Glo Luminescent Cell Viability Assay (Promega).

senescent A549 cells = test: Viability of senescent A549 cells (CellTiter-Glo), Example 18, Table 15; details: for Survival (%): doxorubicin-induced senescent A549 cells, 0 μM = 100%
Experimental: Senescence-induced cancer cells treated with doxorubicin were treated with the test compound at designated concentrations, and cell viability was measured using the CellTiter-Glo Luminescent Cell Viability Assay (Promega).

[1] = test system: HMGN1 secreted from senescent cells; test: HMGN1 secretion (ELISA) from doxorubicin-induced senescent cells, Example 17; format: cell-based, human; details: senescent untreated = 100%; 30 μM; 90 μM for LX-5211, 5433, 6530, 9105, 9118, 9321, 9602; 2.4 mM for LX-9336
[2] = test system: HMGN1 secreted from senescent A549 cells; test: HMGN1 secretion (ELISA) from senescent A549 cells, Example 18, Table 14; format: cell-based, human; details: doxorubicin-senescent A549, without test compound (DMSO) = 100%; 30 μM (LX-5211, LX-5433, LX-6530, LX-6800, LX-9105, LX-9118, LX-9131, LX-9136, LX-9302, LX-9321, LX-9565, LX-9602 at 90 μM; LX-9336 at 2.4 mM)
Experimental: On the other hand, in cancer cells treated with doxorubicin, where senescence was induced, the amount of HMGN1 measured under conditions where cells were not treated with the test compound was calculated as 100%, and the amount of HMGN1 was measured under conditions where the senescent cancer cells were treated with the test compound.

[3] = test system: bleomycin-induced pulmonary fibrosis mice; test: Bleomycin-induced pulmonary fibrosis mice, Example 31, Table 56; format: in vivo, mouse; details: untreated = 100%
Outline: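 Mice with bleomycin-induced pulmonary fibrosis, untreated or given test compound, with vehicle-only controls. Lung tissue collected for RNA extraction and qRT-PCR analysis.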

[4] = test system: obesity-induced aged C57BL6J mice; test: Anxiety, depression, lethargy (open field test) in obesity-aged mice, Example 23-4, Table 44; format: in vivo, mouse; details: obesity-aged mice
Experimental: 15-week-old male C57BL6J mice (The Jackson Laboratory) were induced to obesity by a high-fat diet using the same method as in Example 9-1 WO2023-085787 A1. After acclimation to the experimental environment for one week, the mice were randomly assigned to experimental and control groups. […] LX-3002 was mixed in distilled water with 4% DMSO, 30% PEG300, and 5% Tween80 and administered orally at a concentration of 10 mg/kg daily for 21 days. LX-5701 was mixed in PBS and administered orally at a concentration of 360 mg/kg daily for 21 days. LX-6807 was mixed in saline and administered intraperitoneally at a concentration of 1 mg/kg daily for 21 days. The control group received only the solution in the same volume. After the end of drug administration, the methods described in each example below were performed.
It was determined that anxiety and depression caused by obesity are not causally related to increased body weight, but rather are caused by the accumulation of senescent cells. Accordingly, an activity assessment (open field test) was performed using the same method as in Example 7-7 of WO2023-085787 A1 to analyze lethargy caused by anxiety and depression caused by obesity in mice. The table below quantitatively represents activity, a criterion for assessing lethargy due to anxiety and depression, under conditions in which aging was induced by obesity and the test compound was not administered or was administered. The activity assessment after obesity-induced aging was calculated as 100% and compared with the activity assessment after test compound treatment.

naturally aged mice = test: Anti-aging evaluation in naturally aged mice, Example 31, Table 55; format: in vivo, mouse;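 note: Vehicle-dosed control mice received solution alone at matching volume, values compare test-compound-treated aged mice against that control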
[5] = test system: naturally aged C57BL6J mice; test: Geriatric depression and anxiety in aged mice, Example 21-8; format: in vivo, mouse; details: aged mice
Text: The amount of senescent-associated secretory factor (SASP) in serum and tissues collected from mice of Examples 21-5 and 21-6 was reduced by treatment with LX-5701, LX-2101, or LX-2102. It was confirmed that removing senescent cells, which increase with aging in mice, and effectively reducing the amount of senescent-associated secretory factor (SASP) can improve symptoms of geriatric depression and anxiety.

[6] = test system: carbon tetrachloride-induced liver fibrosis mice; test: Carbon tetrachloride-induced liver fibrosis mice, Example 31, Table 57; format: in vivo, mouse; details: CCl4-induced liver fibrosis mice, untreated = 100%
Outline: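 Mice with induced hepatic fibrosis received either the test compound or, as controls, an equal volume of vehicle solution alone. Once dosing ended, liver tissue was harvested and total RNA was isolated. cDNA was synthesized from this RNA, and quantitative RT-PCR was run on it to measure hepatic mRNA levels of the fibrosis- and senescence-related genes.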

[7] = Homo sapiens, read-out: Survival (%)
[8] = Homo sapiens, A549, read-out: Survival (%)

CCCCCCCCCCCCCCCCCCCC(=O)N[C@H]1CC[C@@]2(C)[C@@H](C1)C[C@@H](O)[C@@H]1[C@@H]2C[C@H](O)[C@]2(C)[C@@H]([C@H](C)CCC(=O)O)CC[C@@H]12 [LX-9343, Icomidocholic acid]
Survival (%) (senescent cells; 1.1 μM): 101.2%
Survival (%) (senescent cells; 10 μM): 74.2%
Survival (%) (senescent cells; 30 μM): 30.5%
Survival (%) (senescent cells; […]): 84.2%
Survival (%) (senescent A549 cells; 1.1 μM): 103.7%
Survival (%) (senescent A549 cells; 10 μM): 74.4%
Survival (%) (senescent A549 cells; 30 μM): 11.9%
Survival (%) (senescent A549 cells; […]): 104.0%
HMGN1 [1]: 305%
HMGN1 [2]: 274%

CCO[C@@H](Cc1ccc(OCCn2c(C)ccc2-c2ccc(SC)cc2)cc1)C(=O)[O-].CCO[C@@H](Cc1ccc(OCCn2c(C)ccc2-c2ccc(SC)cc2)cc1)C(=O)[O-].[Mg+2] [LX-9717, Saroglitazar Magnesium]
Survival (%) (senescent cells; 1.1 μM): 101.2%
Survival (%) (senescent cells; 10 μM): 73.5%
Survival (%) (senescent cells; 30 μM): 21.5%
Survival (%) (senescent cells; […]): 92.7%
Survival (%) (senescent A549 cells; 1.1 μM): 94.6%
Survival (%) (senescent A549 cells; 10 μM): 75.4%
Survival (%) (senescent A549 cells; 30 μM): 10.4%
Survival (%) (senescent A549 cells; […]): 87.6%
HMGN1 [1]: 226%
HMGN1 [2]: 231%

O=C1C2=C(CCN(Cc3ccccc3)C2)N2CCN=C2N1Cc1ccc(C(F)(F)F)cc1 [LX-7263]
Survival (%) (senescent cells; 1.1 μM): 49.2%
Survival (%) (senescent cells; […]): 0.9%
Survival (%) (senescent A549 cells; 1.1 μM): 53.6%
Survival (%) (senescent A549 cells; […]): 11.1%
HMGN1 [1]: 267%
HMGN1 [2]: 283%

CN1CCc2c(c3ccccc3n2Cc2ccc(C(=O)NO)cc2)C1 [LX-5352, Tubastatin A]
Survival (%) (senescent cells; 1.1 μM): 87.9%
Survival (%) (senescent cells; 10 μM): 32.4%
Survival (%) (senescent cells; 30 μM): 1.9%
Survival (%) (senescent cells; […]): 61.6%
Survival (%) (senescent A549 cells; 1.1 μM): 97.6%
Survival (%) (senescent A549 cells; 10 μM): 51.8%
Survival (%) (senescent A549 cells; 30 μM): 22.2%
Survival (%) (senescent A549 cells; […]): 87.5%
HMGN1 [1]: 194%
HMGN1 [2]: 210%

CN(CC(=O)Nc1nc2ccc(OC(F)(F)F)cc2s1)C(=O)CNC(=O)CN [LX-6216, Troriluzole]
Survival (%) (senescent cells; 1.1 μM): 94.5%
Survival (%) (senescent cells; 10 μM): 68.8%
Survival (%) (senescent cells; 30 μM): 24.3%
Survival (%) (senescent cells; […]): 87.5%
Survival (%) (senescent A549 cells; 1.1 μM): 93.8%
Survival (%) (senescent A549 cells; 10 μM): 53.1%
Survival (%) (senescent A549 cells; 30 μM): 14.6%
Survival (%) (senescent A549 cells; […]): 87.5%
HMGN1 [1]: 221%
HMGN1 [2]: 237%

Mirvetuximab [LX-7622]
Survival (%) (senescent cells; 1.1 μM): 99.1%
Survival (%) (senescent cells; 10 μM): 75.7%
Survival (%) (senescent cells; 30 μM): 17.7%
Survival (%) (senescent cells; […]): 94.1%
Survival (%) (senescent A549 cells; 1.1 μM): 88.6%
Survival (%) (senescent A549 cells; 10 μM): 71.1%
Survival (%) (senescent A549 cells; 30 μM): 4.3%
Survival (%) (senescent A549 cells; […]): 81.0%
HMGN1 [1]: 293%

Sulforadex [LX-7104]
Survival (%) (senescent cells; 1.1 μM): 88.5%
Survival (%) (senescent cells; 10 μM): 45.7%
Survival (%) (senescent cells; 30 μM): 2.8%
Survival (%) (senescent cells; […]): 75.7%
Survival (%) (senescent A549 cells; 1.1 μM): 103.3%
Survival (%) (senescent A549 cells; 10 μM): 58.7%
Survival (%) (senescent A549 cells; 30 μM): 18.1%
Survival (%) (senescent A549 cells; […]): 81.2%
HMGN1 [1]: 287%
HMGN1 [2]: 246%

Farletuzumab [LX-7621]
Survival (%) (senescent cells; 1.1 μM): 86.3%
Survival (%) (senescent cells; 10 μM): 78.2%
Survival (%) (senescent cells; 30 μM): 50.2%
Survival (%) (senescent cells; […]): 82.1%
Survival (%) (senescent A549 cells; 1.1 μM): 91.5%
Survival (%) (senescent A549 cells; 10 μM): 69.7%
Survival (%) (senescent A549 cells; 30 μM): 14.4%
Survival (%) (senescent A549 cells; […]): 78.4%
HMGN1 [1]: 304%
HMGN1 [2]: 237%

CC(=O)[O-].CC(=O)[O-].CCc1c(CC)c2cc3nc(cnc4cc(OCCOCCOCCOC)c(OCCOCCOCCOC)cc4ncc4nc(cc1[n-]2)C(CCCO)=C4C)C(C)=C3CCCO.O.[Gd+3] [LX-5211, Motexafin Gadolinium]
Survival (%) (senescent cells; 1.1 μM): 97.6%
Survival (%) (senescent cells; 10 μM): 92.7%
Survival (%) (senescent cells; 30 μM): 87.1%
Survival (%) (senescent cells; 90 μM): 22.7%
Survival (%) (senescent cells; […]): 95.2%
Survival (%) (senescent A549 cells; 1.1 μM): 102.8%
Survival (%) (senescent A549 cells; 10 μM): 88.1%
Survival (%) (senescent A549 cells; 30 μM): 49.2%
Survival (%) (senescent A549 cells; 90 μM): 16.6%
Survival (%) (senescent A549 cells; […]): 98.8%
HMGN1 [1]: 253%
HMGN1 [2]: 262%

CN(C)c1cccc(-c2c3c(=O)n(-c4ccccc4Cl)[nH]c3cc(=O)n2C)c1 [LX-9744, Setanaxib]
Lung p16 mRNA ([3]; lung): 73 (±3.1) %
Col1a1 mRNA [3]: 64 (±3.3) %
viability at 1.1 µM (senescent cells; [7]): 101%
viability at 10 µM (senescent cells; [7]): 69.8%
viability at 30 µM (senescent cells; [7]): 22.3%
geriatric depression [4]: similarly improving geriatric depression
viability at 1.1 µM (senescent A549 cells; [8]): 91.8%
viability at 10 µM (senescent A549 cells; [8]): 73.5%
viability at 30 µM (senescent A549 cells; [8]): 25.8%
Femur Ctsk mRNA (naturally aged mice; femur, untreated = 100%): 57%
Heart Sur2a mRNA (naturally aged mice; heart, untreated = 1.0): 2.3 fold
Joint Col2a1 mRNA (naturally aged mice; joint, untreated = 1.0): 2.4 fold
Kidney Agtr1a mRNA (naturally aged mice; kidney, untreated = 100%): 65%
Liver IL6 mRNA (naturally aged mice; liver, untreated = 100%): 58%
Liver MMP3 mRNA (naturally aged mice; liver, untreated = 100%): 49%
Liver p16 mRNA (naturally aged mice; liver, untreated = 100%): 75%
Open Field Test Time in Center (naturally aged mice; open field test, untreated = 100%): 171%
Skin Col1a1 mRNA (naturally aged mice; skin, untreated = 1.0): 2.3 Fold
Skin SDF1 mRNA (naturally aged mice; skin, untreated = 1.0): 1.7 fold
Muscle Mass (naturally aged mice; untreated 0.64 g): 0.69 g
Fat Mass (naturally aged mice; untreated 0.82 g): 0.84 g
Cataract incidence (naturally aged mice; untreated 83%): 78%
amount of SASP, p16, SA-β-gal, lipofuscin [5]: reduced
symptoms of geriatric depression and anxiety [5]: improved
Liver p16 mRNA ([6]; liver): 71 (±3.1) %
Col1a1 mRNA [6]: 48 (±3.5) %
